Legend:
interleukin 6 (IL-6) = experiment: Cytokine release assay (IL-6) in PBMC stimulated with SARS-CoV2 proteins; format: cell-based, human
[1] = tested on: genes from the COVID-19 model; experiment: Transcription fingerprinting by 3' RNA-sequencing of nucleocapsid-stimulated cells; format: cell-based, human
[2] = compound effect vs nucleocapsid stimulation

Structure (SMILES) | Immune modulation of interleukin 6 (IL-6) release (interleukin 6 (IL-6); nucleocapsid (N) stimulation vs Mock, FIG. 1) | Expression of genes up- or down-regulated 2-fold by nucleocapsid (N) vs Mock ([1]; N+compound vs N, FIG. 4) | Regulation of genes up-regulated at time 4 h N vs Mock ([1]; N-compound vs N, 4 h, FIG. 4 boxplots) | Regulation of genes downregulated in nucleocapsid (N) stimulation vs Mock [1, 2] | Regulation of genes upregulated in nucleocapsid (N) stimulation vs Mock [1, 2] | Immune modulation of interleukin 6 (IL-6) release (interleukin 6 (IL-6); spike (S) or spike trimer (St) stimulation vs Mock, GEF 0.5 μM and 5 μM, POM 100 ng/ml, FIG. 3)
COc1cc2ncnc(Nc3ccc(F)c(Cl)c3)c2cc1OCCCN1CCOCC1 [gefitinib] | stronger than by dexamethasone (DEX) alone | “normalized” in their expression | strongly down-regulated | upregulated | downregulated | –
Nc1cccc2c1C(=O)N(C1CCC(=O)NC1=O)C2=O (stereo not drawn) [pomalidomide] | – | – | – | – | – | does not show immune modulation
